Test results as given in patent US6518243B1, “Desleucyl glycopeptide antibiotics and methods of making same” (Trustees of Princeton University, priority 1999, dated 2003).

How the values were obtained:
[1] = test system: E. faecalis (CL 4877); experiment: Zone of inhibition screen, 96 well agar array format; assay type: cell-based; design: scale not given here
Method in brief: (§1)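 Agar-array screen, 96-well; single compounds vs. strain panel (panel also incl. E. faecium ATCC 49624); antibacterial activity scored.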

[2] = test system: S. aureus (ATCC 29213); experiment: as above; assay type: cell-based; design: scale not given here
Method in brief: as §1

[3] = zone of inhibition relative to 1 mg/ml stock solution of p-chlorobiphenylvancomycin
[4] = zone of inhibition relative to 1 mg/ml p-chlorobiphenylvancomycin

| SMILES | zone score, E. faecalis CL 4877 [1, 3] | zone score, S. aureus ATCC 29213 [2, 3] | zone score, E. faecalis CL 4877 [1, 4] | zone score, S. aureus ATCC 29213 [2, 4] |
| --- | --- | --- | --- | --- |
| CC1OC(OC2C(Oc3c4cc5cc3Oc3ccc(cc3Cl)C(O)C3NC(=O)C(NC(=O)C5NC(=O)C(CC(N)=O)NC(=O)C(NC(=O)C=CC(=O)NC(N)=O)C(O)c5ccc(c(Cl)c5)O4)c4ccc(O)c(c4)-c4c(O)cc(O)cc4C(C(=O)O)NC3=O)OC(CO)C(O)C2O)CC(C)(NCc2ccc(-c3ccc(Cl)cc3)cc2)C1O (centres unmarked) [Compound 189] | 2 | 2 |  |  |
| CC(NC=O)C(=O)NC1C(=O)NC(CC(N)=O)C(=O)NC2C(=O)NC3C(=O)NC(C(=O)NC(C(=O)O)c4cc(O)cc(O)c4-c4cc3ccc4O)C(O)c3ccc(c(Cl)c3)Oc3cc2cc(c3OC2OC(CO)C(O)C(O)C2OC2CC(C)(NCc3ccc(-c4ccc(Cl)cc4)cc3)C(O)C(C)O2)Oc2ccc(cc2Cl)C1O (centres unmarked) [Compound 194] | 2 | 2 |  |  |
| CC1OC(OC2C(Oc3c4cc5cc3Oc3ccc(cc3Cl)C(O)C3NC(=O)C(NC(=O)C5NC(=O)C(CC(N)=O)NC(=O)C(NC(=O)CNC(=O)c5cccnc5)C(O)c5ccc(c(Cl)c5)O4)c4ccc(O)c(c4)-c4c(O)cc(O)cc4C(C(=O)O)NC3=O)OC(CO)C(O)C2O)CC(C)(NCc2ccc(-c3ccc(Cl)cc3)cc2)C1O (centres unmarked) [Compound 197] | 2 | 2 |  |  |
| CC1OC(OC2C(Oc3c4cc5cc3Oc3ccc(cc3Cl)C(O)C3NC(=O)C(NC(=O)C5NC(=O)C(CC(N)=O)NC(=O)C(NC(=O)C(=O)NNC(=N)N)C(O)c5ccc(c(Cl)c5)O4)c4ccc(O)c(c4)-c4c(O)cc(O)cc4C(C(=O)O)NC3=O)OC(CO)C(O)C2O)CC(C)(NCc2ccc(-c3ccc(Cl)cc3)cc2)C1O (centres unmarked) [Compound 199] | 2 | 2 |  |  |
| CC1OC(OC2C(Oc3c4cc5cc3Oc3ccc(cc3Cl)C(O)C3NC(=O)C(NC(=O)C5NC(=O)C(CC(N)=O)NC(=O)C(NC(=O)C(N)=O)C(O)c5ccc(c(Cl)c5)O4)c4ccc(O)c(c4)-c4c(O)cc(O)cc4C(C(=O)O)NC3=O)OC(CO)C(O)C2O)CC(C)(NCc2ccc(-c3ccc(Cl)cc3)cc2)C1O (centres unmarked) [Compound 200] | 2 | 2 |  |  |
| CC1OC(OC2C(Oc3c4cc5cc3Oc3ccc(cc3Cl)C(O)C3NC(=O)C(NC(=O)C5NC(=O)C(CC(N)=O)NC(=O)C(NC(=O)C5=CC(O)C(O)C(O)C5)C(O)c5ccc(c(Cl)c5)O4)c4ccc(O)c(c4)-c4c(O)cc(O)cc4C(C(=O)O)NC3=O)OC(CO)C(O)C2O)CC(C)(NCc2ccc(-c3ccc(Cl)cc3)cc2)C1O (centres unmarked) [Compound 201] | 2 | 2 |  |  |
| CC1OC(OC2C(Oc3c4cc5cc3Oc3ccc(cc3Cl)C(O)C3NC(=O)C(NC(=O)C5NC(=O)C(CC(N)=O)NC(=O)C(NC(=O)CCC=O)C(O)c5ccc(c(Cl)c5)O4)c4ccc(O)c(c4)-c4c(O)cc(O)cc4C(C(=O)O)NC3=O)OC(CO)C(O)C2O)CC(C)(NCc2ccc(-c3ccc(Cl)cc3)cc2)C1O (centres unmarked) [Compound 204] |  |  | 2 | 2 |
| CC1OC(OC2C(Oc3c4cc5cc3Oc3ccc(cc3Cl)C(O)C3NC(=O)C(NC(=O)C5NC(=O)C(CC(N)=O)NC(=O)C(NC(=O)CS(=O)(=O)O)C(O)c5ccc(c(Cl)c5)O4)c4ccc(O)c(c4)-c4c(O)cc(O)cc4C(C(=O)O)NC3=O)OC(CO)C(O)C2O)CC(C)(NCc2ccc(-c3ccc(Cl)cc3)cc2)C1O (centres unmarked) [Compound 205] |  |  | 2 | 2 |
| CC1OC(OC2C(Oc3c4cc5cc3Oc3ccc(cc3Cl)C(O)C3NC(=O)C(NC(=O)C5NC(=O)C(CC(N)=O)NC(=O)C(NC(=O)c5c[nH]c(=O)[nH]c5=O)C(O)c5ccc(c(Cl)c5)O4)c4ccc(O)c(c4)-c4c(O)cc(O)cc4C(C(=O)O)NC3=O)OC(CO)C(O)C2O)CC(C)(NCc2ccc(-c3ccc(Cl)cc3)cc2)C1O (centres unmarked) [Compound 208] |  |  | 2 | 2 |
| CC1OC(OC2C(Oc3c4cc5cc3Oc3ccc(cc3Cl)C(O)C3NC(=O)C(NC(=O)C5NC(=O)C(CC(N)=O)NC(=O)C(NC(=O)CNC(=O)CNC(=O)CNC(=O)CNC(=O)OCc5ccccc5)C(O)c5ccc(c(Cl)c5)O4)c4ccc(O)c(c4)-c4c(O)cc(O)cc4C(C(=O)O)NC3=O)OC(CO)C(O)C2O)CC(C)(NCc2ccc(-c3ccc(Cl)cc3)cc2)C1O (centres unmarked) [Compound 214] |  |  | 2 | 2 |
| CC1OC(OC2C(Oc3c4cc5cc3Oc3ccc(cc3Cl)C(O)C3NC(=O)C(NC(=O)C5NC(=O)C(CC(N)=O)NC(=O)C(NC(=O)CNC(=O)CNC(=O)CNC(=O)OCc5ccccc5)C(O)c5ccc(c(Cl)c5)O4)c4ccc(O)c(c4)-c4c(O)cc(O)cc4C(C(=O)O)NC3=O)OC(CO)C(O)C2O)CC(C)(NCc2ccc(-c3ccc(Cl)cc3)cc2)C1O (centres unmarked) [Compound 215] |  |  | 2 | 2 |
| CC=C(N)C(=O)NC1C(=O)NC(CC(N)=O)C(=O)NC2C(=O)NC3C(=O)NC(C(=O)NC(C(=O)O)c4cc(O)cc(O)c4-c4cc3ccc4O)C(O)c3ccc(c(Cl)c3)Oc3cc2cc(c3OC2OC(CO)C(O)C(O)C2OC2CC(C)(NCc3ccc(-c4ccc(Cl)cc4)cc3)C(O)C(C)O2)Oc2ccc(cc2Cl)C1O (centres unmarked) [Compound 219] |  |  | 2 | 2 |
| CC1OC(OC2C(Oc3c4cc5cc3Oc3ccc(cc3Cl)C(O)C3NC(=O)C(NC(=O)C5NC(=O)C(CC(N)=O)NC(=O)C(NC(=O)CCNC(N)=O)C(O)c5ccc(c(Cl)c5)O4)c4ccc(O)c(c4)-c4c(O)cc(O)cc4C(C(=O)O)NC3=O)OC(CO)C(O)C2O)CC(C)(NCc2ccc(-c3ccc(Cl)cc3)cc2)C1O (centres unmarked) [Compound 221] |  |  | 2 | 2 |
| CC1OC(OC2C(Oc3c4cc5cc3Oc3ccc(cc3Cl)C(O)C3NC(=O)C(NC(=O)C5NC(=O)C(CC(N)=O)NC(=O)C(NC(=O)CON)C(O)c5ccc(c(Cl)c5)O4)c4ccc(O)c(c4)-c4c(O)cc(O)cc4C(C(=O)O)NC3=O)OC(CO)C(O)C2O)CC(C)(NCc2ccc(-c3ccc(Cl)cc3)cc2)C1O (centres unmarked) [Compound 222] |  |  | 2 | 2 |
| CC1OC(OC2C(Oc3c4cc5cc3Oc3ccc(cc3Cl)C(O)C3NC(=O)C(NC(=O)C5NC(=O)C(CC(N)=O)NC(=O)C(NC(=O)CNC(=O)CNC(=O)OC(C)(C)C)C(O)c5ccc(c(Cl)c5)O4)c4ccc(O)c(c4)-c4c(O)cc(O)cc4C(C(=O)O)NC3=O)OC(CO)C(O)C2O)CC(C)(NCc2ccc(-c3ccc(Cl)cc3)cc2)C1O (centres unmarked) [Compound 223] |  |  | 2 | 2 |
| CC1OC(OC2C(Oc3c4cc5cc3Oc3ccc(cc3Cl)C(O)C3NC(=O)C(NC(=O)C5NC(=O)C(CC(N)=O)NC(=O)C(NC(=O)c5cccnc5Sc5ccc(Cl)cc5)C(O)c5ccc(c(Cl)c5)O4)c4ccc(O)c(c4)-c4c(O)cc(O)cc4C(C(=O)O)NC3=O)OC(CO)C(O)C2O)CC(C)(NCc2ccc(-c3ccc(Cl)cc3)cc2)C1O (centres unmarked) [Compound 230] |  |  | 2 | 2 |
| C=C(C(=O)NC1C(=O)NC(CC(N)=O)C(=O)NC2C(=O)NC3C(=O)NC(C(=O)NC(C(=O)O)c4cc(O)cc(O)c4-c4cc3ccc4O)C(O)c3ccc(c(Cl)c3)Oc3cc2cc(c3OC2OC(CO)C(O)C(O)C2OC2CC(C)(NCc3ccc(-c4ccc(Cl)cc4)cc3)C(O)C(C)O2)Oc2ccc(cc2Cl)C1O)C(F)(F)F (centres unmarked) [Compound 231] |  |  | 2 | 2 |
| CC1OC(OC2C(Oc3c4cc5cc3Oc3ccc(cc3Cl)C(O)C(NC(=O)C(C)(CO)CO)C(=O)NC(CC(N)=O)C(=O)NC5C(=O)NC3C(=O)NC(C(=O)NC(C(=O)O)c5cc(O)cc(O)c5-c5cc3ccc5O)C(O)c3ccc(c(Cl)c3)O4)OC(CO)C(O)C2O)CC(C)(NCc2ccc(-c3ccc(Cl)cc3)cc2)C1O (centres unmarked) [Compound 232] |  |  | 2 | 2 |
| CC1OC(OC2C(Oc3c4cc5cc3Oc3ccc(cc3Cl)C(O)C3NC(=O)C(NC(=O)C5NC(=O)C(CC(N)=O)NC(=O)C(NC(=O)COc5cc(Cl)c(Cl)cc5Cl)C(O)c5ccc(c(Cl)c5)O4)c4ccc(O)c(c4)-c4c(O)cc(O)cc4C(C(=O)O)NC3=O)OC(CO)C(O)C2O)CC(C)(NCc2ccc(-c3ccc(Cl)cc3)cc2)C1O (centres unmarked) [Compound 233] |  |  | 2 | 2 |
| COc1ccc(C(=O)NC2C(=O)NC(CC(N)=O)C(=O)NC3C(=O)NC4C(=O)NC(C(=O)NC(C(=O)O)c5cc(O)cc(O)c5-c5cc4ccc5O)C(O)c4ccc(c(Cl)c4)Oc4cc3cc(c4OC3OC(CO)C(O)C(O)C3OC3CC(C)(NCc4ccc(-c5ccc(Cl)cc5)cc4)C(O)C(C)O3)Oc3ccc(cc3Cl)C2O)c(OC)c1 (centres unmarked) [Compound 236] |  |  | 2 | 2 |
| Cc1cnc(C(=O)NC2C(=O)NC(CC(N)=O)C(=O)NC3C(=O)NC4C(=O)NC(C(=O)NC(C(=O)O)c5cc(O)cc(O)c5-c5cc4ccc5O)C(O)c4ccc(c(Cl)c4)Oc4cc3cc(c4OC3OC(CO)C(O)C(O)C3OC3CC(C)(NCc4ccc(-c5ccc(Cl)cc5)cc4)C(O)C(C)O3)Oc3ccc(cc3Cl)C2O)cn1 (centres unmarked) [Compound 243] |  |  | 2 | 2 |
| CC1OC(OC2C(Oc3c4cc5cc3Oc3ccc(cc3Cl)C(O)C3NC(=O)C(NC(=O)C5NC(=O)C(CC(N)=O)NC(=O)C(NC(=O)c5cccc(SC(F)(F)F)c5)C(O)c5ccc(c(Cl)c5)O4)c4ccc(O)c(c4)-c4c(O)cc(O)cc4C(C(=O)O)NC3=O)OC(CO)C(O)C2O)CC(C)(NCc2ccc(-c3ccc(Cl)cc3)cc2)C1O (centres unmarked) [Compound 248] |  |  | 2 | 2 |
